Assay results from a melting point compilation (Tetko et al.; mined from patent text by program, amines drawn as free bases though some values may be those of a salt).

SMILES | melting point [°C]
CCNC(=O)n1nc(Oc2c(Cl)cc(C(F)(F)F)cc2Cl)c(Cl)c1C | 85 to 86
OCc1cnc(-c2cccs2)s1 | 89 to 90
O=Cc1ccc(Cl)c(Cl)c1O | 97
N#Cc1cc(-n2nnnc2C(F)(F)F)ccc1OC(F)(F)F | 65 to 67
CS(=O)c1ccc(Oc2ccc(Cl)c(Cl)c2)nc1C#N (configuration not stated) | 165 to 167
COC(C)(C)CN1CCC(CNC(=O)c2cc(Cl)c(N)n3cc(C)nc23)CC1 | 211
Nc1ncc2cc(-c3c(Cl)cccc3Cl)c(N)nc2n1 | 325 to 332
CN(CCc1c[nH]c2ccc(NC(N)=O)cc12)C(=O)C(F)(F)F | 193 to 194
CCOC(=O)C(C)(OC)C(=O)Nc1ccc(Br)cc1C (configuration not stated) | 99 to 103
N#CC1=C(NN)C(=O)NC1=O | > 350
CNC(=O)ON(C(=O)NC)C(=O)C(C)(C)C | 117 to 119
CN(C)C1(c2cccs2)CCC(=O)CC1 | 102 to 103
CC12CCC(O)CC1=CCC1C2CCC2(C)C(n3cccn3)=CCC12 (configuration not stated) | 197 to 199
Cc1c(C)c2c(c(C)c1OC=O)SC(CCCI)O2 (configuration not stated) | 91 to 93
CC(=O)OCC1OC(n2cc(C3=C(n4ccnc4)C(=O)N(C)C3=O)c3cccnc32)C(OC(C)=O)C(OC(C)=O)C1OC(C)=O (configuration not stated) | 88 to 90
Cn1cc(C=CC(=O)NC2CC2)c([N+](=O)[O-])n1 | 183 to 185
Cc1cc(OCC(F)(F)F)c(NC(=O)CN2CCN(CCO)CC2)c(OCC(F)(F)F)n1 | 117 to 118
Cn1cc(C(=O)NCc2ccc(Br)cc2)c(=O)c2cc(CN3CCOCC3)sc21 | 245 to 246
CN1CC(C(=O)CN2CCOCC2)CC2c3cccc4c3c(cn4C)CC21 (configuration not stated) | 198 to 200
COC(NC(C)=O)(C(=O)O)C(Br)Br (configuration not stated) | 143 to 144
Cc1cccc(C)c1OC(=O)[C@H](C)[C@@H](O)C(C)C | 58.5 to 59.5

SMILES | melting point [°C]
COc1ccc(C=Cc2cc(F)c(OC)c(OC)c2)cc1O | 86 to 87
CCCCCC(=O)NC[C@@H]1CN2C(=O)C[C@H]2O1 (racemic) | 56 to 57
CCCCCCCCCCCCCCCNC(=O)OCC(CO)OC (configuration not stated) | 42.5 to 43
CC(=O)/C=C(\C)c1ccc(C2CCCCC2)cc1 | 49 to 50
CC(O)Cn1nc2c3c(cc([N+](=O)[O-])cc31)CCC2 (configuration not stated) | 147 to 148
CCCn1c(=O)c2c(NC)n[nH]c2n(Cc2ccc(Cl)cc2)c1=O | 305 to 307
CC(CCC(=O)C(C)(C)O)C1CCC2C3=CC=C4CC(O)CCC4(C)C3CCC21C (configuration not stated) | 150 to 152
Cc1ccc(C(N)=O)cc1NC(=O)COCCO | 118 to 119
Cc1c(-c2nc(-c3c(F)cccc3Cl)nn2C)csc1Br | 133 to 134
CCCNC1=NS(=O)(=O)c2c(sc(C)c2C#N)N1C(=O)OCC | 175 to 179
Cc1oc(=O)oc1Cn1cc[nH]c(=O)c1=O | 225 to 226
CNC(Cc1ccc(Cl)nc1)=C(N)C(=O)C(F)(F)F | 114
CC(C)(C)OC(=O)NC(Cc1cc(C(=O)c2cc(C(F)(F)F)cc(C(F)(F)F)c2)ccc1[N+](=O)[O-])C(=O)OC(C)(C)C (configuration not stated) | 176 to 177
CC(=O)OC1CC2CCC3C4CC(N5CCCCC5)C(=O)C4(C)CCC3C2(C)CC1N1CCCCC1 (configuration not stated) | 154
COc1cc2ncnc(N3CCc4c(C)cccc43)c2cc1OC | 174 to 175
O=C1c2cc([N+](=O)[O-])cc3cc([N+](=O)[O-])cc(c23)C(=O)N1O | 317 to 320
COc1ccc(N2CCN(c3c(C)c(C)c4c(c3C)CC(C)(CN3CCS(=O)(=O)CC3)O4)CC2)cc1 (configuration not stated) | 145 to 164
CC(C)COC(=O)Nc1cccc(-c2ccnc3c(Br)cnn23)c1 | 90 to 92
NC(c1ccc2ccccc2c1)P(O)O (configuration not stated) | 237 to 239
CC(C)[C@H](CC1C(=O)OC(C)(C)OC1=O)NC(=O)OC(C)(C)C | 108 to 112

Continued, values first:

melting point [°C] | SMILES
99 to 100 | Cc1cc([N+](=O)[O-])cc(C)c1Oc1ccc(OCc2ccccc2)c(C(C)C)c1
125 to 127 | CC(O)c1ccc(CCNS(=O)(=O)c2ccc(Br)cc2)cc1 (configuration not stated)
205 | Cc1cccc(NC(=O)NCC(=O)N(CC(=O)N2CCC(C)(C)CC2)c2ccccc2)c1
77 to 81 | CCCn1c(-c2ccc(-n3ccnc3)cc2)cnc1[C@H](Cc1ccccn1)N(C=O)c1cc2cc(F)ccc2o1
136 | CN1CCC(C(=O)OC2c3ccccc3C(=O)N2c2ccc3ccc(Cl)nc3n2)CC1 (configuration not stated)
135 to 136 | O=CNC1=NN(c2ccccc2)C(c2ccc(Cl)cc2)C1 (configuration not stated)
185 to 187 | CCOCc1nc2c(N)nc3cc(-c4cccc(C(=O)N5CCCC5)c4)cnc3c2n1CC(C)(C)O
254 | Cn1c(=O)[n+]([O-])c(-c2ccccc2)c2cc(Cl)ccc21
136 to 138 | CC(C(=O)c1c(O)c2cccnc2n(-c2cccc(OC(F)(F)F)c2)c1=O)c1ccccc1 (configuration not stated)
45 to 46 | Cc1ccccc1Oc1cccc2c1OC(=O)C2C (configuration not stated)
308 to 314 | c1ccc2c(c1)c1nncn1c1c(-c3noc(C4CC4)n3)ncn21
76 to 82 | CCN(CC)CCCOc1ccc(C[C@H](NC(=O)[C@@H]2CCCN2S(=O)(=O)c2ccc(C)cc2)C(=O)O)cc1
114 to 116 | Cc1nn(C)c2c1N(C(=O)CN1CCCC1)c1ccccc1NC2=O
162 | Cc1cc(-c2[nH]c3ccc(OCc4ccccc4)cc3c2C)cc(C)c1O
140 to 142 | O=S(=O)(Nc1ccc2c(OCc3ccc4ccccc4c3)cccc2c1)C(F)(F)F
158 to 161 | O=C(O)C(c1ccccc1)n1nnc(C(c2ccccc2)c2ccccc2)n1 (configuration not stated)
254 to 255 | O=C(Nc1cc(Cl)cc(Cl)c1)c1cc2ccccc2cc1O
191 to 193 | Nc1ccc(S(=O)(=O)Nc2nc(-c3cccc([N+](=O)[O-])c3)cs2)cc1
248 to 250 | O=[N+]([O-])c1ccc(C=Cc2ccc(N3CCC(O)CC3)cc2)cc1

melting point [°C] | SMILES
131 to 132 | CCOC(=O)Oc1ccc(S(=O)(=O)N2c3cc(F)c(F)c(F)c3-n3cccc3C2CC)cc1 (configuration not stated)
135 to 140 | Cn1c(-c2ccc(-c3ccncc3)cc2)cnc1[C@H](Cc1ccccn1)N(C=O)c1cc2cc(Cl)ccc2o1
87 to 88 | CCC(=NOc1ccc(Cl)cc1)c1cc(Cl)ccc1NS(=O)(=O)C(F)(F)F
226 to 228 | CCOC(=O)C1=C(C)NC(C)=C(C(=O)OC)C1c1cccc2c(=O)c(C)c(-c3ccccc3)oc12 (configuration not stated)
111 to 113 | C[Si](C)(C)OC1(C(=O)c2ccccc2)CC2CCC(C1)N2CCCC(c1ccc(F)cc1)c1ccc(F)cc1 (configuration not stated)
148 to 150 | CC(=O)Oc1ccc2c(c1)CCC1C2CCC2(C)C(OC(=O)c3ccccc3)CCC12 (configuration not stated)
236 to 240 | COC(=O)c1ccc2c(c1)CN(c1c(F)cc3c(=O)c(C(=O)O)cn(-c4ccc(F)cc4)c3c1F)C2
232 to 234 | Cn1c(Oc2ccc(-n3c4ncccc4n4ccnc34)cc2)nc2ccccc21
87 to 90 | Cc1ccc(Oc2ccc(Cl)cn2)c(Oc2ccc(Cl)cn2)c1
200 to 201 | COc1cc2c(cc1OC)CN(CCc1ccc(NC(=O)c3cccc4c(=O)c5cccc(OC)c5[nH]c34)c(C)c1)CC2
158 | COc1ccc(-c2[nH]c3ccc(OCc4ccccc4)cc3c2C)cc1
263 to 266 | CC(=O)NNc1ccnc2c(NC(=O)c3c(Cl)cccc3Cl)cc(C)cc12
199 to 201 | COc1cccc(C=C2NC(=O)NC2=O)c1OCCc1ccccc1
124 to 126 | CCc1nc2ccccc2c(=O)n1CCNc1ccc(SC(C)(C)C(=O)O)cc1
309 | CC(C)(C)c1c(C(=O)NC2C3CC4CC(C3)CC2C4)cnn1-c1ccc(C(=O)O)cc1 (configuration not stated)
94 to 96 | CN(C)C(=O)C(C)(C)n1ccc(-c2cc(Cl)ccc2Cl)n1
120 to 121 | Cc1ccc(N(C)S(=O)(=O)c2cccs2)c2[nH]c(C3=NCC(CC(N)=O)S3)cc12 (configuration not stated)
108 to 111 | CC1CCCN1c1cc(F)cc(C(=O)Nc2ccc(OCCN3CCOCC3)c3ccccc23)c1 (configuration not stated)
189 to 191 | O=C(O)c1ncoc1-c1ccoc1

melting point [°C] | SMILES
> 300 | Nc1nc2c(ncn2CCC(COC(=O)n2ccnc2)COC(=O)n2ccnc2)c(=O)[nH]1
115 to 118 | CCCc1c(OCc2cccc(C(=O)NC(C)CCCc3cccnc3)c2)ccc(C(C)=O)c1O (configuration not stated)
254 to 255 | O=c1c2c(Cc3ccc([N+](=O)[O-])cc3)n[nH]c2c2cccnc2n1-c1ccccc1
65 | CC(C)C(=O)N(Cc1ccccc1)c1nnn(C)n1
118 to 120 | C[Si](C)(C)O[C@@H]1C(=O)N[C@@H]1c1ccccc1 (relative stereo)
233 | O=c1cc(Oc2ccccc2)c2cc(C(c3ccc(Cl)cc3)n3ccnc3)ccc2[nH]1 (configuration not stated)
186 to 188 | CCC(=O)Nc1nc(-c2ccc(OC(F)F)cc2)cs1
80 to 82 | COc1ccc(Nc2nc(NC3CCCCCC3)nc(Oc3ccc(I)cc3)n2)cc1Cl
> 200 | CCOC(=O)c1nc(NCC(c2ccccc2)c2ccccc2)c2nc[nH]c2n1
47 to 49 | Cn1nc(-c2c(F)cccc2Cl)nc1-c1ccc(COc2ncc(C(F)(F)F)cc2Cl)c(Cl)c1
48 to 51 | Nc1ccccc1-c1cnoc1
124 to 125 | CC(C)(C)O[C@@H]1C[C@@H](CO)N(S(=O)(=O)c2ccc3ccccc3c2)C1
198 to 200 | NC(=O)CC[C@H](Nc1ccc(CC(=O)O)cc1)C(=O)O
114 to 116 | CC1(C#N)CCCc2nc(-c3ccccc3)ccc21 (configuration not stated)
217 to 218 | COc1cc(C(=O)Nc2cc(-c3c(-c4ccc(F)c(C)c4)nc4cccnn34)ccn2)ccc1F
179 to 181 | CC(C)(C)C(O)(Cc1ccccc1)C(Cn1ccnc1)Oc1ccc(Cl)cc1 (configuration not stated)
149 to 152 | CCOCc1nc2c(N)nc3cc(-c4cccc(C(=O)N5CCOCC5)c4)cnc3c2n1CC(C)(C)O
68 to 71 | CCOC(=O)c1c(CC)ncnc1NCCc1ccc(CCO)cc1
